Among the data in ChEMBL document CHEMBL3046272, “Tolerance of two Bifora radians Bieb populations to ALS inhibitors in winter wheat” (2012) are Activity and Ratio values, retold here.

The subject of assay [1] is Bifora radians. Kind of assay: Herbicidal activity against ALS-inhibiting herbicide-resistant four to six-leaf stage Bifora radians infested wheat field at 15 to 20 g/ha applied by spraying measured after 14 to 56 days post treatment. The assay is classed as functional, organism-based.
Assay [2] concerns Bifora radians. The assay is described as follows: Herbicidal activity against ALS-inhibiting herbicide-resistant six to eight-leaf stage Bifora radians infested wheat field at ED90 applied by spraying relative to ALS-inhibiting herbicide-sensitive Bifora radians. The assay is classed as functional.
For assay [3], the system named is Bifora radians. Kind of assay: Herbicidal activity against ALS-inhibiting herbicide-resistant two to four-leaf stage Bifora radians infested wheat field at ED50 applied by spraying relative to ALS-inhibiting herbicide-sensitive Bifora radians. The assay is classed as functional.
Assay [4] has as its system Bifora radians. Kind of assay: Herbicidal activity against ALS-inhibiting herbicide-resistant four to six-leaf stage Bifora radians infested wheat field at ED50 applied by spraying relative to ALS-inhibiting herbicide-sensitive Bifora radians. The assay is classed as functional.
The subject of assay [5] is Bifora radians. Kind of assay: Herbicidal activity against ALS-inhibiting herbicide-resistant two to four-leaf stage Bifora radians infested wheat field at ED90 applied by spraying relative to ALS-inhibiting herbicide-sensitive Bifora radians. The assay is classed as functional.
Assay [6] concerns Bifora radians. The assay is described as follows: Herbicidal activity against ALS-inhibiting herbicide-resistant four to six-leaf stage Bifora radians infested wheat field at ED90 applied by spraying relative to ALS-inhibiting herbicide-sensitive Bifora radians. The assay is classed as functional.
Assay [7] has as its system Bifora radians. Kind of assay: Herbicidal activity against ALS-inhibiting herbicide-resistant six to eight-leaf stage Bifora radians infested wheat field at 15 to 20 g/ha applied by spraying measured after 14 to 56 days post treatment. The assay is classed as functional, organism-based.
The subject of assay [8] is Bifora radians. Kind of assay: Herbicidal activity against ALS-inhibiting herbicide-resistant two to four-leaf stage Bifora radians infested wheat field at 15 to 20 g/ha applied by spraying measured after 14 to 56 days post treatment. The assay is classed as functional, organism-based.
The test system of assay [9] is Bifora radians. Kind of assay: Herbicidal activity against ALS-inhibiting herbicide-resistant six to eight-leaf stage Bifora radians infested wheat field at ED50 applied by spraying relative to ALS-inhibiting herbicide-sensitive Bifora radians. The assay is classed as functional.

Calls of active or inactive are those of the source. The calls are words filed in the database; no cut-off is given here.

Consider `COc1nc(C)nc(NC(=O)NS(=O)(=O)c2ccccc2Cl)n1` [CHLORSULFURON], for which the outcome in assay [1], in assay [7] and in assay [8] was Active. Also, the Ratio amounted to 2 in assay [2]; 1.9 in assay [3]; 1.8 in assay [4]; 1.6 in [5]; 1.6 in assay [6]; 2.3 in [9].
In the case of `COC(=O)c1ccccc1S(=O)(=O)NC(=O)N(C)c1nc(C)nc(OC)n1` [TRIBENURON METHYL], the Ratio was found to be 2.4 in [2]; 1.7 in assay [3]; 1.8 in assay [4]; 1.8 in assay [5]; 1.9 in assay [6]; 2 in assay [9].
